Measured values: PubChem BioAssay (NCI)
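Where inhibition never reached the appropriate level, the endpoint shown equals the highest concentration tested. Otherwise, values were interpolated linearly from a five-concentration, 48-hour dose response in 96-well plates. Abbreviation: GI50, concentration required for 50% inhibition of growth. TGI: total growth inhibition.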

Key:
Experiment in all cases: NCI anticancer screen, dose series, 48 h
ACHN renal = system: ACHN renal
COLO 205 colon = system: COLO 205 colon
HCC-2998 colon = system: HCC-2998 colon
HOP-62 NSCLC = system: HOP-62 NSCLC
HT29 colon = system: HT29 colon
NCI-H23 lung = system: NCI-H23 lung
NCI-H460 lung = system: NCI-H460 lung
OVCAR-5 ovarian = system: OVCAR-5 ovarian
RPMI-8226 leukemia = system: RPMI-8226 leukemia
TK-10 renal = system: TK-10 renal

Row | SMILES | GI50 (ACHN renal) [µM] | TGI (ACHN renal) [µM] | GI50 (COLO 205 colon) [nM] | TGI (COLO 205 colon) [µM] | GI50 (HCC-2998 colon) [µM] | TGI (HCC-2998 colon) [µM] | GI50 (HOP-62 NSCLC) [µM] | TGI (HOP-62 NSCLC) [µM] | GI50 (HT29 colon) [µM] | TGI (HT29 colon) [µM] | GI50 (NCI-H23 lung) [µM] | TGI (NCI-H23 lung) [µM] | GI50 (NCI-H460 lung) [µM] | TGI (NCI-H460 lung) [µM] | GI50 (OVCAR-5 ovarian) [µM] | TGI (OVCAR-5 ovarian) [µM] | GI50 (RPMI-8226 leukemia) [µM] | TGI (RPMI-8226 leukemia) [µM] | GI50 (TK-10 renal) [µM] | TGI (TK-10 renal) [µM]
1 | O=c1oc(-c2ccc(O)c(O)c2)cc2cc(O)cc(O)c12 | 45.3 | > 100 | 41800 | > 100 | 36.6 | 57.7 | 33 | 90.4 | 71.5 | > 100 | 35.2 | > 100 | 31 | > 100 | 36.7 | > 100 | 20.8 | > 100 | 30.5 | > 100
2 | COc1ccccc1Cn1cc2c(c1)-c1oncc1CC2 | 2.12 | > 100 | 553 | 2.43 | 0.873 | 6.87 | 1.02 | > 100 | 0.351 | 11.7 | 0.8 | > 55.3 | 0.334 | 4.75 | 0.756 | > 74.1 | 0.454 | – | 2.67 | > 78
3 | COc1cc[nH]c1/C=C1\C(=O)Nc2ccc(F)c(C#CC3(O)CCOCC3)c21 | 0.487 | > 25 | 408 | 1.13 | 0.676 | 2.59 | 0.878 | > 10.4 | 0.501 | 2.81 | 0.609 | 2.61 | 0.637 | 2.7 | 0.714 | > 7.16 | 0.76 | 1.76 | 0.507 | 2.92
4 | CC[C@]12C=CCN3CC[C@]4(C(=C(C(=O)OC)C1)Nc1cc(O)ccc14)[C@@H]32 | 18.5 | 41.4 | 21800 | 47.3 | 14.9 | 29.6 | 17.2 | 38.9 | 19.9 | 63.1 | 16.8 | 37.7 | 18.9 | 38.5 | 19.8 | 57 | 26.2 | 79.8 | 30.8 | 99.7
5 | O=C1OC(c2ccc(O)cc2)(c2ccc(O)cc2)c2cccc3cccc1c23 | 14.3 | 27.9 | 737 | 18.4 | 15.8 | 32.5 | 17.3 | 38.1 | 19.4 | 39.6 | 17.8 | 37.2 | 17.9 | 39.6 | 16.5 | 31.7 | 18.6 | 50.5 | 18 | 34
6 | CCOC(=O)c1[nH]c2c(c1C)-c1[nH]c(=O)c(S(=O)(=O)c3ccccc3)cc1SC2 | 47.3 | > 100 | 22500 | 46.4 | > 100 | > 100 | 44.3 | > 100 | 40.7 | > 100 | 41.1 | > 100 | 34.6 | > 100 | > 100 | > 100 | 44 | > 100 | 42.6 | > 100
7 | COc1cc(C2C3=C(COC3=O)N(CCO)c3cc4c(cc32)CCC4)cc(OC)c1O (stereo not drawn) | 0.706 | > 32.5 | 229 | 2.16 | 0.221 | 1.29 | 0.213 | > 32.5 | 0.156 | – | 0.402 | > 32.5 | 0.114 | 6.65 | 3.18 | > 32.5 | 0.838 | > 32.5 | > 32.5 | > 32.5
8 | Cc1c(C(C)C)cc(OCCO)cc1C(C)C | – | > 100 | – | > 100 | – | > 100 | – | > 100 | – | 81.1 | – | > 100 | – | > 100 | – | > 100 | – | 74.3 | – | > 100
9 | CC1=CC2=C(C)C3(CC3)[C@@](C)(O)C(=O)C2=C1 | – | 0.379 | – | 0.584 | – | 0.406 | – | 0.356 | – | 0.803 | – | 0.186 | – | 0.431 | – | 0.454 | – | > 1 | – | 0.89
10 | O=c1c2ccccc2nc(-c2ccccc2)n1NCC1(O)OCC(O)C(O)C1O (stereo not drawn) | – | > 100 | – | > 100 | – | > 100 | – | > 100 | – | > 100 | – | > 100 | – | > 100 | – | > 100 | – | > 100 | – | > 100
11 | O=C(N[C@@H]1CCCc2ccccc21)[C@H](CCC(=O)N1CCN(C2CCCCC2)CC1)N1C(=O)[C@@H](N2C(=O)OC[C@@H]2c2ccccc2)[C@H]1/C=C/c1ccccc1 | 2.78 | 22.1 | 1590 | 3.52 | 2.27 | 5.37 | 3.87 | 17.4 | 1.99 | 5.21 | 3.7 | 19.7 | 2.65 | 7.23 | 4.01 | 47.5 | 1.54 | 5.34 | 2.02 | 6.01
12 | CC(C)OP(=O)(CP(=O)(OC(C)C)OC(C)C)OC(C)C.[CH3][Sn]([Br])([Br])[Br] | > 100 | > 100 | > 100000 | > 100 | > 100 | > 100 | > 100 | > 100 | > 100 | > 100 | > 100 | > 100 | > 100 | > 100 | > 100 | > 100 | > 100 | > 100 | > 100 | > 100
13 | COC(=O)c1c(C)oc2ccc(OC(C)=O)cc12 | – | > 100 | – | > 100 | – | > 100 | – | > 100 | – | > 100 | – | > 100 | – | > 100 | – | > 100 | – | > 100 | – | > 100
